Test results reported in the supplement of paper PMC10307832.

Experiments:
Assay in all cases: relative viability (nuclei count vs DMSO), 5 days (fraction); higher = more cells survive
EKVX = test system: EKVX
Procedure, shortened: (§1)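 Lung cancer cell lines, seeded in 1536-well plates, were treated the following day by pin tool with a single drug or with five library-drug doses (not always all listed) in √10 steps on top of a fixed anchor-drug dose. Cells were fixed and nuclei stained in one step after 5 days, and nuclei were counted. Relative viability is the nuclei count for treated wells divided by that for vehicle wells, reported as medians of duplicate plates.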

NCI-H1993 = test system: NCI-H1993
Procedure, shortened: as §1

NCI-H838 = test system: NCI-H838
Procedure, shortened: as §1

BEN = test system: BEN
Procedure, shortened: as §1

NCI-H1666 = test system: NCI-H1666
Procedure, shortened: as §1

PC-3 [JPC-3] = test system: PC-3 [JPC-3]
Procedure, shortened: as §1

LC-2-ad = test system: LC-2-ad
Procedure, shortened: as §1

NCI-H460 = test system: NCI-H460
Procedure, shortened: as §1

LCLC-97TM1 = test system: LCLC-97TM1
Procedure, shortened: as §1

SW 1573 = test system: SW 1573
Procedure, shortened: as §1

LU99A = test system: LU99A
Procedure, shortened: as §1

NCI-H1355 = test system: NCI-H1355
Procedure, shortened: as §1

NCI-H1793 = test system: NCI-H1793
Procedure, shortened: as §1

A-427 = test system: A-427
Procedure, shortened: as §1

NCI-H520 = test system: NCI-H520
Procedure, shortened: as §1

LOU-NH91 = test system: LOU-NH91
Procedure, shortened: as §1

NCI-H1650 = test system: NCI-H1650
Procedure, shortened: as §1

NCI-H23 = test system: NCI-H23
Procedure, shortened: as §1

NCI-H650 = test system: NCI-H650
Procedure, shortened: as §1

NCI-H1915 = test system: NCI-H1915
Procedure, shortened: as §1

RERF-LC-KJ = test system: RERF-LC-KJ
Procedure, shortened: as §1

NCI-H2347 = test system: NCI-H2347
Procedure, shortened: as §1

With `O=C(O)CCCCC(CCSCc1ccccc1)SCc1ccccc1` (stereo not drawn) [CPI-613] + Nc1ncn([C@H]2C[C@H](O)[C@@H](CO)O2)c(=O)n1 [Decitabine] (partner 2 µM) the relative viability (EKVX; first compound 5 µM) was 0.29, the relative viability (EKVX; first compound 15.81 µM) was 0.348 and the relative viability (EKVX; first compound 50 µM) was 0.423. The relative viability (EKVX; first compound 500 µM) was 0.397, the relative viability (NCI-H1993; first compound 5 µM) was 0.643 and the relative viability (NCI-H1993; first compound 15.81 µM) was 0.56. The relative viability (NCI-H1993; first compound 50 µM) was 0.679, the relative viability (NCI-H1993; first compound 158.11 µM) was 0.61 and the relative viability (NCI-H1993; first compound 500 µM) was 0.327. For the same compound, the relative viability (NCI-H838; first compound 5 µM) was 0.449, the relative viability (NCI-H838; first compound 15.81 µM) was 0.437 and the relative viability (NCI-H838; first compound 50 µM) was 0.386. The relative viability (NCI-H838; first compound 158.11 µM) was 0.253, the relative viability (NCI-H838; first compound 500 µM) was 0.104 and the relative viability (BEN; first compound 5 µM) was 0.773. It also gave a relative viability (BEN; first compound 15.81 µM) of 0.649, a relative viability (BEN; first compound 50 µM) of 0.802 and a relative viability (BEN; first compound 158.11 µM) of 0.625. The relative viability (BEN; first compound 500 µM) was 0.608, the relative viability (NCI-H1666; first compound 5 µM) was 0.676 and the relative viability (NCI-H1666; first compound 15.81 µM) was 0.601. The relative viability (NCI-H1666; first compound 50 µM) was 0.798, the relative viability (NCI-H1666; first compound 158.11 µM) was 0.639 and the relative viability (NCI-H1666; first compound 500 µM) was 0.509. For the same compound, the relative viability (PC-3 [JPC-3]; first compound 5 µM) was 0.799, the relative viability (PC-3 [JPC-3]; first compound 50 µM) was 0.879 and the relative viability (PC-3 [JPC-3]; first compound 158.11 µM) was 0.716. For the same compound, the relative viability (PC-3 [JPC-3]; first compound 500 µM) was 0.622, the relative viability (LC-2-ad; first compound 5 µM) was 0.781 and the relative viability (LC-2-ad; first compound 15.81 µM) was 0.859. For the same compound, the relative viability (LC-2-ad; first compound 50 µM) was 0.705, the relative viability (LC-2-ad; first compound 158.11 µM) was 0.578 and the relative viability (LC-2-ad; first compound 500 µM) was 0.0132. For the same compound, the relative viability (NCI-H460; first compound 5 µM) was 0.513, the relative viability (NCI-H460; first compound 15.81 µM) was 0.396 and the relative viability (NCI-H460; first compound 50 µM) was 0.456. It also gave a relative viability (NCI-H460; first compound 158.11 µM) of 0.115, a relative viability (NCI-H460; first compound 500 µM) of 0.0075 and a relative viability (LCLC-97TM1; first compound 5 µM) of 0.251. The relative viability (LCLC-97TM1; first compound 15.81 µM) was 0.213, the relative viability (LCLC-97TM1; first compound 50 µM) was 0.261 and the relative viability (LCLC-97TM1; first compound 158.11 µM) was 0.0572. For the same compound, the relative viability (LCLC-97TM1; first compound 500 µM) was 0.051, the relative viability (SW 1573; first compound 5 µM) was 0.437 and the relative viability (SW 1573; first compound 15.81 µM) was 0.399. It also gave a relative viability (SW 1573; first compound 50 µM) of 0.498, a relative viability (SW 1573; first compound 158.11 µM) of 0.207 and a relative viability (SW 1573; first compound 500 µM) of 0.0549. It also gave a relative viability (LU99A; first compound 5 µM) of 0.886, a relative viability (LU99A; first compound 15.81 µM) of 0.79 and a relative viability (LU99A; first compound 50 µM) of 0.815. It also gave a relative viability (LU99A; first compound 158.11 µM) of 0.79, a relative viability (LU99A; first compound 500 µM) of 0.219 and a relative viability (NCI-H1355; first compound 5 µM) of 0.34. For the same compound, the relative viability (NCI-H1355; first compound 15.81 µM) was 0.337, the relative viability (NCI-H1355; first compound 50 µM) was 0.342 and the relative viability (NCI-H1355; first compound 158.11 µM) was 0.341. For the same compound, the relative viability (NCI-H1355; first compound 500 µM) was 0.114, the relative viability (NCI-H1793; first compound 5 µM) was 0.468 and the relative viability (NCI-H1793; first compound 15.81 µM) was 0.51. For the same compound, the relative viability (NCI-H1793; first compound 50 µM) was 0.539, the relative viability (NCI-H1793; first compound 158.11 µM) was 0.25 and the relative viability (NCI-H1793; first compound 500 µM) was 0.108. For the same compound, the relative viability (A-427; first compound 5 µM) was 0.55, the relative viability (A-427; first compound 15.81 µM) was 0.551 and the relative viability (A-427; first compound 50 µM) was 0.582. The relative viability (A-427; first compound 158.11 µM) was 0.495, the relative viability (A-427; first compound 500 µM) was 0.435 and the relative viability (NCI-H520; first compound 5 µM) was 0.48. For the same compound, the relative viability (NCI-H520; first compound 15.81 µM) was 0.502, the relative viability (NCI-H520; first compound 50 µM) was 0.428 and the relative viability (NCI-H520; first compound 158.11 µM) was 0.271. It also gave a relative viability (NCI-H520; first compound 500 µM) of 0.149, a relative viability (LOU-NH91; first compound 5 µM) of 0.794 and a relative viability (LOU-NH91; first compound 15.81 µM) of 0.783. For the same compound, the relative viability (LOU-NH91; first compound 50 µM) was 0.819, the relative viability (LOU-NH91; first compound 158.11 µM) was 0.765 and the relative viability (LOU-NH91; first compound 500 µM) was 0.683. The relative viability (NCI-H1650; first compound 5 µM) was 0.475, the relative viability (NCI-H1650; first compound 15.81 µM) was 0.443 and the relative viability (NCI-H1650; first compound 50 µM) was 0.332. For the same compound, the relative viability (NCI-H1650; first compound 158.11 µM) was 0.169, the relative viability (NCI-H1650; first compound 500 µM) was 0.0363 and the relative viability (NCI-H23; first compound 5 µM) was 0.34. The relative viability (NCI-H23; first compound 15.81 µM) was 0.321, the relative viability (NCI-H23; first compound 50 µM) was 0.326 and the relative viability (NCI-H23; first compound 158.11 µM) was 0.155. For the same compound, the relative viability (NCI-H23; first compound 500 µM) was 0.0289, the relative viability (NCI-H650; first compound 5 µM) was 0.314 and the relative viability (NCI-H650; first compound 15.81 µM) was 0.295. For the same compound, the relative viability (NCI-H650; first compound 50 µM) was 0.299, the relative viability (NCI-H650; first compound 158.11 µM) was 0.321 and the relative viability (NCI-H650; first compound 500 µM) was 0.288. For the same compound, the relative viability (NCI-H1915; first compound 5 µM) was 0.272, the relative viability (NCI-H1915; first compound 15.81 µM) was 0.266 and the relative viability (NCI-H1915; first compound 50 µM) was 0.256. The relative viability (NCI-H1915; first compound 158.11 µM) was 0.235, the relative viability (NCI-H1915; first compound 500 µM) was 0.114 and the relative viability (RERF-LC-KJ; first compound 5 µM) was 0.663. It also gave a relative viability (RERF-LC-KJ; first compound 15.81 µM) of 0.619, a relative viability (RERF-LC-KJ; first compound 50 µM) of 0.643 and a relative viability (RERF-LC-KJ; first compound 158.11 µM) of 0.272. The relative viability (RERF-LC-KJ; first compound 500 µM) was 0.199, the relative viability (NCI-H2347; first compound 5 µM) was 0.652 and the relative viability (NCI-H2347; first compound 15.81 µM) was 0.553. The relative viability (NCI-H2347; first compound 50 µM) was 0.706, the relative viability (NCI-H2347; first compound 158.11 µM) was 0.614 and the relative viability (NCI-H2347; first compound 500 µM) was 0.347.
